pIC50: −log10 of the molar value.
Experiments:
CYP 3A4/5 = test: In vitro time and metabolism-dependent CYP inhibition; type: in vitro ADME; details: human
[1] = test system: Colo-205 and SW620 cell populations; test: High content imaging of cells in mitosis, 48 hours; type: cell-based
[2] = test system: MCM2 at Ser40/41 and Ser53 (MV411 cells); test: Phosphorylation status of Cdc7 target MCM2 in cells; type: cell-based
Experimental: MV411 cells were also treated with SRA141 in a dose-dependent manner (at concentrations between 0.5 and 3.3 μM) and were subsequently assessed for phosphorylation status of MCM2 at Ser40/41 and Ser53.

[3] = Plasma concentrations by LC-MS/MS after repeat oral dosing, non-tumor bearing nude rats; type: in vivo, rat; details: oral 50, 100 or 150 mg/kg, after last dose
Experimental: Non-tumor bearing female nude rats were treated orally with SRA141 (n=3 per route) at 50 mg/kg (QD×12 days) or 100 or 150 mg/kg (5 days on/2 days off/5 days on). The vehicle was 0.5% CMC-Na/1% Lutrol in water. SRA141 plasma concentrations were determined by LC-MS/MS following last dose.

A20 tumor xenografts = test: A20 immunocompetent lymphoma xenograft model; type: in vivo; details: 120 mg/kg orally
Experimental: Immunocompetent female BALB/c mice bearing A20 tumor xenografts were administered (i) control (PBS, intraperitoneal) or (ii) SRA141 120 mg/kg orally; n=8 animals per group). Dosing occurred on Days 0 to 4, 7 to 11, and 14 to 18. Tumor growth inhibition was calculated on Day 23, the final day of the study.

[4] = test system: Phosphorylation of MCM2 at Ser53 (Colo-205 cells); test: Durability of Cdc7 inhibition after washout (pMCM2 Ser53); type: cell-based, human; details: 24 hours after washout
Experimental: The durability of drug-induced Cdc7 inhibition was investigated in Colo-205 cells treated with two concentrations of SRA141 (0.1 μM and 1 μM) for 48 hours, followed by either immediate cell harvest, or removal of the drug incubate followed by an additional 24 hours incubation prior to cell harvest. Phosphorylation of MCM2 at Ser53, a target site of Cdc7 activity, was compared between the two conditions.

[5] = test system: MDA-MB-486 breast tumor xenografts; test: MDA-MB-486 breast xenograft study; type: in vivo; details: for tumor growth inhibition: 5 weeks, Day 35
Experimental: Female CB-17 SCID mice bearing MDA-MB-486 breast tumor xenografts were orally administered (i) vehicle control (0.1 M HCl/0.5% MC400) or (ii) SRA141 30 or 60 mg/kg BID for 5 weeks (n=10 per treatment group). Tumor growth inhibition was calculated on Day 35, the final day of the study.

[6] = test system: three AML cell lines (EOL-1, Molm-16 and MV-4-11) and three AML PDX models (AM5512, AM7440 and AM7577); test: AML 3D cultures, summary over models; type: cell-based; details: five of the six models; read-out: IC50 range
Experimental: The activity of SRA141 was investigated in in vitro and ex vivo three-dimensional (3D) cultures prepared from three AML cell lines (EOL-1, Molm-16 and MV-4-11) and three AML PDX models (AM5512, AM7440 and AM7577), respectively. Tumor cultures were treated with SRA141 (0.08 to 33 μM) for 5 days.

[7] = In vitro plasma protein binding; type: in vitro ADME; details: rat

## CCOC(=O)C1=C(NN2CCN(CC(F)(F)F)CC2)O/C(=C\c2c[nH]c3ncccc23)C1=O [SRA141]
CYP 3A4/5
  pIC50: 5.17 to 5.21
[1]
  percent of cells in mitosis: percent of cells in mitosis is greater in populations treated with SRA141 compared to other Cdc7 inhibitors
[2]
  concentration from which MCM2 phosphorylation at Ser40/41 and Ser53 was reduced: 0.5 µM
[3]
  systemic exposure versus dose: systemic exposure increased with an increase in the oral dose
A20 tumor xenografts
  tolerability: tolerated
A20 tumor xenografts; Days 0 to 4, 7 to 11, 14 to 18, Day 23
  tumor growth inhibition: 59%
[4]; 0.1 μM for 48 hours
  Cdc7 activity (pMCM2 Ser53) after washout: recovery of Cdc7 activity by 24 hours following compound washout
[4]; 1 μM for 48 hours
  Cdc7 activity (pMCM2 Ser53) after washout: prolonged pMCM2 inhibition was observed at 24 hours following washout
[5]; 30 mg/kg BID
  tolerability: well tolerated
  tumor growth inhibition: 26%
[5]; 60 mg/kg BID
  mice with maximum body weight loss greater than 20%: Six of 10
  tumor growth inhibition: 53%
[6]
  pIC50: 5.80 to 6.82
[7]
  fraction unbound: < 0.1

Reference: patent US12533353B2, “Methods of treatment of cancer comprising CDC7 inhibitors” (CARNA BIOSCIENCES, INC., priority 2018, dated 2026)
